# Like-named read-outs stand apart in the source and are kept apart here.
# Assays:
# [1] = system: HDAC6; settings: Figure 2; cited from earlier work
# [2] = molecular target: T1, Human recombinant N-ter-GST-HDAC-6 (Homo sapiens, UniProt Q9UBN7); experiment: HDAC-Glo I/II bioluminogenic enzyme assay, HDAC6; assay type: biochemical; design: GST (N); purchased BPS Bioscience 50006
# T1 sequence (Q9UBN7 1-1215): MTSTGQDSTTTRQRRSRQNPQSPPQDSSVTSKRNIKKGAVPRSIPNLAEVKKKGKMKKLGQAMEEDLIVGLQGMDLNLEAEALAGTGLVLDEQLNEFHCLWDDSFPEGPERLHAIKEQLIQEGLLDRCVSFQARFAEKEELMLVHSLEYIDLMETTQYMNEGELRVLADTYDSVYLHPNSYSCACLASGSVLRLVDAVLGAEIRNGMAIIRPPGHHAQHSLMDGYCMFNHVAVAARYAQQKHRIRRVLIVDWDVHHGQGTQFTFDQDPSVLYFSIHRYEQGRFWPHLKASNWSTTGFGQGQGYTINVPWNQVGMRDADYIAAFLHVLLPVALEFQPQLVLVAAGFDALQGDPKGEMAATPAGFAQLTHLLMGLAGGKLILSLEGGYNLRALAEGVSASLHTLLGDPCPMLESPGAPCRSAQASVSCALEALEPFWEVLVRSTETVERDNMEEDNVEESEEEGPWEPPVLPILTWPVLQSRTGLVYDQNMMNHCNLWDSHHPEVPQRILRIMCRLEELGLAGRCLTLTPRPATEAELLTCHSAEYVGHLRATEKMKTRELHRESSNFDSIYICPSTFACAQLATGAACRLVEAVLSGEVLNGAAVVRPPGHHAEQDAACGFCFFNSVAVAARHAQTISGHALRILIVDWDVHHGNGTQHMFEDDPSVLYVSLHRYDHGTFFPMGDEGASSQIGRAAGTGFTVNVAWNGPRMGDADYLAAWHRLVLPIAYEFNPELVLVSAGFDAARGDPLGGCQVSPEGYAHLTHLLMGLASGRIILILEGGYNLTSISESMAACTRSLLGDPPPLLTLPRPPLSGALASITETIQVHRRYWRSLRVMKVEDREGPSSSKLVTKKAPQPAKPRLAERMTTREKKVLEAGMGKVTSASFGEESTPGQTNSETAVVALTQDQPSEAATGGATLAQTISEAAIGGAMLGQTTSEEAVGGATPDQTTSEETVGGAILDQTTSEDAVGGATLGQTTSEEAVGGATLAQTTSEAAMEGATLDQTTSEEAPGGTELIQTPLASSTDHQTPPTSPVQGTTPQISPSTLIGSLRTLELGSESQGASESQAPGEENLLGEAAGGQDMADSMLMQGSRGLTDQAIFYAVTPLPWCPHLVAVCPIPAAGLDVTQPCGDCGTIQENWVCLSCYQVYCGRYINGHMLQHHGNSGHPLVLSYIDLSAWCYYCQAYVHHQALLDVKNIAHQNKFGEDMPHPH
# [3] = molecular target: T2, Human recombinant C-ter-His-FLAG-HDAC1 (Homo sapiens, UniProt Q13547); experiment: HDAC-Glo I/II bioluminogenic enzyme assay, HDAC1; assay type: biochemical; settings: mean ± SD of three independent experiments; read-out: HDAC Inhibition, IC50 ± SD, HDAC1
# T2 construct: His (C); FLAG (C); purchased BPS Bioscience 50051
# T2 sequence (Q13547 whole entry): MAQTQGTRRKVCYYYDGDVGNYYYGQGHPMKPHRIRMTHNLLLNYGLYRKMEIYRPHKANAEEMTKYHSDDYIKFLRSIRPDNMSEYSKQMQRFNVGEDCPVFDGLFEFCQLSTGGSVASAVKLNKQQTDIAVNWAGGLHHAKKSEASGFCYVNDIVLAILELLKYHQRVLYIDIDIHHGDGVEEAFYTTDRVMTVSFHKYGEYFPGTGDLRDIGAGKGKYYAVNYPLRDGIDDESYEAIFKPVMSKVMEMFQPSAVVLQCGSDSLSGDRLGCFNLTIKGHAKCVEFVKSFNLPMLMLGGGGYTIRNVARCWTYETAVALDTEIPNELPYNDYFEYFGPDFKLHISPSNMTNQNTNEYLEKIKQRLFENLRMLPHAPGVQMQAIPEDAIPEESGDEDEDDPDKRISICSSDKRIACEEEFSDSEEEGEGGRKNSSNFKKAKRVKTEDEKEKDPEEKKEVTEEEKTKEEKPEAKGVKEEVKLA
# [4] = molecular target: T3, Human recombinant C-terminal His-tag-HDAC8 (Homo sapiens, UniProt Q9BY41); experiment: HDAC-Glo I/II bioluminogenic enzyme assay, HDAC8; assay type: biochemical; settings: mean ± SD of three independent experiments; read-out: HDAC Inhibition, IC50 ± SD, HDAC8
# T3 construct: His (C); purchased BPS Bioscience 50008
# T3 sequence (Q9BY41 1-377): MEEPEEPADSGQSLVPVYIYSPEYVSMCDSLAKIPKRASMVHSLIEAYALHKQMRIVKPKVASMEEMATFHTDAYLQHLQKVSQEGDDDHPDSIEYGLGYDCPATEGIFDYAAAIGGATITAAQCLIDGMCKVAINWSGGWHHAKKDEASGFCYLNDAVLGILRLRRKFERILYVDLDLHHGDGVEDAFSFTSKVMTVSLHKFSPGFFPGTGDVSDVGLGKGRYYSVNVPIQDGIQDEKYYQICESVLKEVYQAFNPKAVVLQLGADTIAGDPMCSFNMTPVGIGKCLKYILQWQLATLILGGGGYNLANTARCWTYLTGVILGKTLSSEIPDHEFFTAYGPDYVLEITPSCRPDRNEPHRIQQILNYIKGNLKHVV
# [5] = system: MDA-MB-231 cells; experiment: Cell viability (MTT) assay, MDA-MB-231; assay type: cell-based, human; settings: Homo sapiens, MDA-MB-231, 48 h, read-out: Cytotoxic activity IC50 ± SD, MDA-MB-231
# Description: (§1) Human breast adenocarcinoma cells (MCF-7, ATCC® HTB-22™) and triple-negative breast cancer cells (MDA-MB-231, ATCC® HTB-26™) were obtained from the American Type Culture Collection (Rockville, MD, USA). Cells were maintained as a monolayer culture in DMEM:Ham’s 12 (1:1) medium (Sigma-Aldrich, St. Louis, MO, USA) supplemented with penicillin (192 U/mL), streptomycin (200 µg/mL), and 10% of heat-inactivated fetal calf serum (FCS). Cells were grown at 37 °C in 5% CO2 and humidified air atmosphere, by twice weekly subculture.
# (§2) Cytotoxic activity of synthesized 1-benzhydryl-piperazine-based HDAC inhibitors was assessed on MDA-MB-231 and MCF-7 cells using an MTT assay. MDA-MB-231 (5 × 10^3 cells/well) and MCF-7 (5 × 10^3 cells/well) were treated with synthesized compounds in six different concentrations (100, 50, 25, 12.5, 6.25, and 3.13 μM), and each concentration was added in five replicates. MTT solution (3-(4,5-dimethylthiazol-2-yl)-2,5-diphenyltetrazolium bromide) (Sigma-Aldrich, St. Louis, USA) was added to each well (20 µL) after 48 h. After 4 h of incubation, 100 μL of 10% SDS was added in each well and incubated at 37 °C. On the next day, the absorbance at 570 nm was recorded. The ratio of absorbance (570 nm) values between treated and control cells multiplied by 100 was used to calculate cell survival (%). The concentration of synthesized HDAC inhibitors that reduced cell viability by 50% was defined as the IC50 value, and was compared to the vehicle control.
# [6] = system: MCF-7 cells; experiment: Cell viability (MTT) assay, MCF-7; assay type: cell-based; settings: Homo sapiens, MCF7, 48 h, read-out: Cytotoxic activity IC50 ± SD, MCF-7
# Description: as §1, §2
# [7] = system: MDA-MB-231 cells; experiment: Apoptosis assay, Annexin V-FITC/7-AAD flow cytometry; assay type: cell-based, human; settings: IC50 concentration
# Description: Examined breast cancer cells (MDA-MB-231) were stained with annexin V–fluorescein isothiocyanate/and 7AAD (BD Pharmingen, San Diego, CA, USA), and the samples were prepared following the specifications given by manufacturer. The population of apoptotic cells was analyzed by flow cytometry using a FACS Calibur cytometer and Cell Quest computer software (Becton Dickinson, Heidelberg, Germany).
# [8] = system: MDA-MB-231 tumor spheres; experiment: 3D tumor sphere model, MTT and imaging; assay type: cell-based, human; settings: for tumor sphere viability: 50 µM, 72 h, formed spheres, MTT
# Description: MDA-MB-231 cells were seeded at a cell density of 1000 c/w in 100 μL of DMEM containing 10% FCS in a low-attachment NunclonSphera 96-well ultra-low attachment plate (Thermo Scientific Nunc™, Rochester, NY, USA), to form multicellular tumor spheres, for 4 days. The formation and growth of tumor spheres were examined and imaged with an Olympus CKX53 microscope, using a 10× objective. MDA-MB-231 tumor spheres were treated by carefully adding 50 μL of the medium with fresh nutrient medium for control spheres or with compound-supplemented medium (50 μM) for treated spheres for another 72 h. The cytotoxicity of compounds toward the MDA-MB-231 tumor spheres was investigated by MTT assay.
# The formation and growth of tumor spheroids were examined and imaged with an Olympus CKX53 microscope, using 4x objective. The cytotoxicity of compounds toward the MDA-MB-231 tumor spheroids was investigated by MTT assay.
# [9] = molecular target: T4, Human recombinant HDAC-3/NcoR2 (Homo sapiens, UniProt O15379); experiment: HDAC-Glo I/II bioluminogenic enzyme assay, HDAC3; assay type: biochemical; design: purchased BPS Bioscience 50003; settings: mean ± SD of three independent experiments; read-out: HDAC Inhibition, IC50 ± SD, HDAC3
# T4 sequence (O15379 whole entry): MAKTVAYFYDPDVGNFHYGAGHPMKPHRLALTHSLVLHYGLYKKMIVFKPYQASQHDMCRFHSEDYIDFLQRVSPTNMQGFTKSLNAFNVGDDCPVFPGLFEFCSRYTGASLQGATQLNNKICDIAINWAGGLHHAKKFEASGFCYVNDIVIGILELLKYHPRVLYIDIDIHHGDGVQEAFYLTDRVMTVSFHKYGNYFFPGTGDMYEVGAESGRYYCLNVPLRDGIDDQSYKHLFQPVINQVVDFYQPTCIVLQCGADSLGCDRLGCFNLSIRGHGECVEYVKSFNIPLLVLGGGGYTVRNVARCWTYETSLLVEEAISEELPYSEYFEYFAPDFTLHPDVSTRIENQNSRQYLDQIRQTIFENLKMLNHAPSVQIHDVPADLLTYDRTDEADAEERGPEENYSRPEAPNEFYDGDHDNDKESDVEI
# T4 sequence (Q9Y618 395-489 partner limits assumed): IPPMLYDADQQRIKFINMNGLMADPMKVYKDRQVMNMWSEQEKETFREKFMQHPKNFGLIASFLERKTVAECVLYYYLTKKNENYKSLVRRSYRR
# [10] = molecular target: T2, Human recombinant C-ter-His-FLAG-HDAC1; design: method as in PMID 21832257; settings: profiles of reference HDACi; read-out: HDAC Inhibition, IC50, HDAC1; cited from earlier work
# [11] = molecular target: T3, Human recombinant C-terminal His-tag-HDAC8; design: method as in PMID 21832257; settings: profiles of reference HDACi; read-out: HDAC Inhibition, IC50, HDAC8; cited from earlier work
# [12] = molecular target: T1, Human recombinant N-ter-GST-HDAC-6; settings: read-out: HDAC Inhibition, IC50, HDAC6; profiles of reference HDACi; cited from earlier work
# [13] = molecular target: T4, Human recombinant HDAC-3/NcoR2; settings: read-out: HDAC Inhibition, IC50, HDAC3; cited from earlier work
# [14] = system: intersegmental blood vessels (ISVs) of Tg(fli1:EGFP) zebrafish embryos; experiment: Anti-angiogenic activity in Tg(fli1:EGFP) zebrafish embryos; assay type: in vivo; settings: 8b 6.25-50 µM; Suten effective dose 1.56 µM
# Description: The inhibitory activity of 8b on angiogenesis was examined using embryos of the transgenic zebrafish Tg(fli1:EGFP) line with GFP-labeled endothelial cells, as previously described. Briefly, embryos at the 6–8 hpf stage were exposed to three non-toxic concentrations and incubated at 28 °C by 48 hpf. At 48 hpf, the treated embryos were anesthetized with 0.02% tricaine, imaged under a fluorescence microscope (Olympus BX51, Applied Imaging Corp., San Jose, CA, USA), and analyzed for the development of intersegmental blood vessels (ISVs). The experiment was performed three times using ten embryos per concentration. ISV lengths were measured using ImageJ program, and expressed as mean value with standard deviation. Inhibitory effect of the applied treatment was determined in relation to the control (DMSO-treated) group, arbitrarily set to 100%.
# [15] = system: MDA-MB-231 cells; experiment: Cell cycle analysis, propidium iodide flow cytometry; assay type: cell-based, human; settings: 72 h
# Description: MDA-MB-231 cells were treated with tested compounds for specified time courses. After treatment, examined cells were washed in cold PBS and incubated for 30 min in 96% ethanol on ice, centrifuged, and incubated with 80 μL RNase A ([…]) and 50 μL propidium iodide (50 μg/mL) for 30 min at 37 °C. The cell cycle was analyzed by FACS Calibur E440 (Becton Dickinson) flow cytometer and Cell Quest software. Results are presented as a percentage of cell cycle phases.
# [16] = 5 μM, mean ± standard error of triplicate
smiles,measurement,setting,value
O=C(NO)c1cnc(NC2(c3ccccc3)CCC(F)(F)CC2)nc1 [ACY-1083],IC50,[1],0.003 µM
"O=C(CCN1CCN(C(c2ccccc2)c2ccccc2)CC1)NO [Compound 3b, 3-(4-(diphenylmethyl)-piperazin-1-yl)-N-hydroxypropionamide]",inhibition at 5 µM,[2]; [16],< 25%
"O=C(CCCCN1CCN(C(c2ccccc2)c2ccccc2)CC1)NO [Compound 5b, 5-(4-(diphenylmethyl)-piperazin-1-yl)-N-hydroxypentanamide]",inhibition at 5 µM,[2]; [16],< 25%
"O=C(CCCCCN1CCN(C(c2ccccc2)c2ccccc2)CC1)NO [Compound 6b, 6-(4-(diphenylmethyl)-piperazin-1-yl)-N-hydroxyhexanamide]",IC50,[3],4.73 ± 0.67 µM
same,IC50,[4],2.44 ± 0.51 µM
same,IC50,[5],33.4 ± 2.79 µM
same,IC50,[6],84 ± 5.2 µM
same,programmed cell death,[7]; 24 h,slight increase
same,early apoptotic cells,[7]; 48 h,approximately 20%
same,early apoptotic cells,[7]; 72 h,approximately 20%
same,tumor sphere viability,[8],mild decrease
same,sphere formation,"[8]; co-culture 4 d, at higher concentrations",inhibit sphere formation to some extent
same,IC50,[9],1.86 ± 0.09 µM
same,% HDAC6 Inhibition at 5 μM,[2]; [16],95.6 ± 0.9%
same,inhibition at 5 µM,[2]; [16],> 90%
same,IC50,"[2]; mean ± SD of three independent experiments, read-out: HDAC Inhibition, IC50 ± SD, HDAC6",0.186 ± 0.005 µM
same,Selectivity Ratio HDAC1/6,[2]; ratio of IC50 values,25.4
same,Selectivity Ratio HDAC3/6,[2]; ratio of IC50 values,10
same,Selectivity Ratio HDAC8/6,[2]; ratio of IC50 values,13.1
CCCC(=O)[O-].[Na+] [Sodium butyrate],IC50,[10],8.3 µM
same,IC50,[11],10.4 µM
same,IC50,[12],> 1000 µM
same,IC50,[13],4.8 µM
CCCC(CCC)C(=O)O [Valproic acid],IC50,[10],660 µM
same,IC50,[12],> 1000 µM
"CCN(CC)CCNC(=O)c1c(C)[nH]c(/C=C2\C(=O)Nc3ccc(F)cc32)c1C [sunitinib-malate, reference compound]",toxic response in embryos at anti-angiogenic effective doses,[14],life-threatening pericardial edema
"CN1CCc2c(c3ccccc3n2Cc2ccc(C(=O)NO)cc2)C1 [tubastatin A, reference compound]",IC50,[5],20.8 ± 2.84 µM
same,IC50,[6],93.3 ± 9.4 µM
same,sub-G1 phase cells,[15],around 30%
same,tumor sphere viability,[8],mild decrease
same,sphere formation and spheres viability,"[8]; co-culture 50 μM, 4 d in sphere culture conditions",significantly inhibited

# From publication PMC9785542, “Discovery of 1-Benzhydryl-Piperazine-Based HDAC Inhibitors with Anti-Breast Cancer Activity: Synthesis, Molecular Modeling, In Vitro and In Vivo Biological Evaluation” (Pharmaceutics, 2022)
